Assay results: patent US4485239A, “2-(2,6-Dimethyl-3,5-diethoxycarbonyl-1,4-dihydropyridine-4-carboxamide glutaric acid its disodium salt and method of their preparation” (priority 1982, dated 1984)
Where a name gives a salt, the structure may show the parent alone. Read-outs that look alike come from different tables or passages of the source.

How the values were obtained:
[1] = Solubility in water; format: physicochemical
[2] = test system: experimental models of arrhythmia; assay: Antiarrhythmic activity on experimental models of arrhythmia (calcium, aconitic and strophanthin), overall; format: in vivo, mice, rats, guinea pigs; settings: for antiarrhythmic activity: in vivo
Procedure: The action of 2-(2,6-dimethyl-3,5-diethoxycarbonyl-1,4-dihydropyridine-4-carboxamide) glutaric acid and its disodium salt on the cardiovascular system was studied in experiments with mice, rats, guinea pigs and cats. […] Antiarrhythmic agents such as quinidine and novocaine amide (procaine amide) were used for comparisons in the […] study.
(§1) In the experiments on white mice narcotized with urethane ECGs were recorded in the second standard lead. A 2% solution of calcium chloride was injected into the tail vein at a constant rate (00.1 ml during 2 seconds).
(§2) Comparative study of the antiarrhythmic activity of the compounds on an aconitic model of arrhythmia was carried out on albino rats narcotized with urethane and chloralose (intraperitoneally), ECGs were recorded in the second standard lead.
Guinea pigs were narcotized with urethane and chloralose then strophanthin was administered in them, and against the background of arrhythmia, the above compound was administered intravenously. The doses of the compound, that arrest the strophanthin arrhythmia in the guinea pigs were recorded.

[3] = test system: arrythmogenic and lethal effects of calcium chloride; assay: Antagonism towards the arrhythmogenic and lethal effects of calcium chloride in mice (ECG); format: in vivo
Procedure: as §1

[4] = test system: cardiovascular system; assay: Acute experiments in narcotized cats: arterial pressure, respiration, ECG and haemodynamic effects of acetyl choline; format: in vivo
Procedure: In acute experiments with cats narcotized with chloralose and urethane arterial pressure, respiration and ECG were recorded. The influence of the above comound on the arterial pressure, respiration, and on the haemodynamic effects of acetyl choline were investigated. Anaqueous solution of the compound was administered intravenously.

[5] = test system: white mice; assay: in vivo; settings: intraperitoneal
Text: (§3) Acute toxicity was investigated on mongrel white mice of both sexes (Table 2).

[6] = in vivo; settings: mouse, in vivo, ip
Text: as §3

[7] = test system: Strophanthin arrhythmia; assay: Arrest of strophanthin arrhythmia in guinea pigs; format: in vivo; settings: for ED50: Cavia porcellus, read-out: ED50, strophanthin arrhythmia in guinea pigs
[8] = test system: Aconitic arrhythmia; assay: Antiarrhythmic activity on aconitic model of arrhythmia in rats; format: in vivo, albino rats; settings: for ED50: Rattus norvegicus, ip, read-out: ED50, aconitic arrhythmia in rats (average effective antiarrhythmic dose)
Procedure: as §2

[9] = test system: cardiac arrhythmia; settings: cited from earlier work; for antiarrhythmic activity / effect on arterial pressure (side-effect): medical practice; for antiarrhythmic activity / effect on arterial pressure (side-effect) / toxicity: prior art
[10] = cats, intravenous, 0.1-0.2 g/kg
[11] = guinea pigs, intravenous, against background of arrhythmia
[12] = strophanthin arrhythmia, guinea pigs
[13] = compound dose 3 mg/kg intraperitoneally
[14] = compound dose 6 mg/kg intraperitoneally
[15] = compound dose 10 mg/kg intraperitoneally
[16] = compound dose 30 mg/kg intraperitoneally

CCOC(=O)C1=C(C)NC(C)=C(C(=O)OCC)C1C(=O)NC(CCC(=O)O)C(=O)O (stereo not shown) [Compound of formula I, 2-(2,6-dimethyl-3,5-diethoxycarbonyl-1,4-dihydropyridine-4-carboxamide) glutaric acid]
solubility in water [1]: hardly soluble in water
antiarrhythmic activity [2]: pronouncedantiarrhythmic activity
antiarrhythmic effect compared with novocaine amide ([3]; novocaine amide dose 30 mg/kg, CaCl2 model, mice): same antiarrhythic effect as novocaine amide in a dose of 30 mg/kg

CCOC(=O)C1=C(C)NC(C)=C(C(=O)OCC)C1C(=O)NC(CCC(=O)O)C(=O)O (stereo not shown) [Compound of formula II, disodium salt of 2-(2,6-dimethyl-3,5-diethoxycarbonyl-1,4-dihydropyridine-4-carboxamide) glutaric acid]
change in arterial pressure [4, 10]: does not cause any significant change
change in pulse rate [4, 10]: does not cause any significant change
change in respiration rate [4, 10]: does not cause any significant change
response reaction to acetyl choline ([4]; cats, intravenous, doses of up to 4 mg/kg): does not reduce the response reaction to acetyl choline
drop of the arterial pressure ([4]; intravenous application): does not cause a drastic drop of the arterial pressure
solubility in water [1]: well soluble in water
toxicity relative to novocaine amide ([5]; mice): 1/17
toxicity relative to quinidine ([5]; mice): 1/12
LD50 [6]: > 2000 mg/kg
activity on experimental models of arrhythmia compared with quinidine and novocaine amide ([2]; calcium, aconitic and strophanthin models): higher activity on all kinds of experimental models of arrhythmia
antiarrhythmic activity [2]: pronounced antiarrhythmic activity
ED50 [7, 11]: 2.1 ± 0.3 mg/kg
effect on experimental strophanthin arrhythmia ([7]; guinea pig, in vivo): stable effect
activity compared with quinidine [7, 12]: not inferior to quinidine
activity relative to novocaine amide [7, 12]: approximately 25 fold
ED50 [8]: 3 ± 0.5 mg/kg
antiarrhythmic activity compared with quinidine and novocaine amide ([8]; aconitic model, rats, intraperitoneal 30-40 minutes before aconitine): higher antiarrhythmic activity than quinidine and novocane amide
Dose of CaCl2, arrhythmogenic [3, 13]: 98.4 mg/kg
Dose of CaCl2, lethal [3, 13]: 105.0 mg/kg
Dose of CaCl2, arrhythmogenic [3, 14]: 127.4 mg/kg
Dose of CaCl2, lethal [3, 14]: 134.5 mg/kg
Dose of CaCl2, arrhythmogenic [3, 15]: 130.5 mg/kg
Dose of CaCl2, lethal [3, 15]: 140.5 mg/kg
effect on arrhythmogenic and lethal doses of calcium chloride ([3]; preliminary administration 20-30 minutes prior to narcosis, mice): considerably increases

CCN(CC)CCNC(=O)c1ccc(N)cc1 [Novocaine amide, reference compound]
antiarrhythmic activity [9]: insufficient antiarrthythmic activity
effect on arterial pressure (side-effect) [9]: drastically reduce the arterial pressure
toxicity [9]: toxic
LD50 [6]: 290 mg/kg
ED50 [7, 11]: 55 ± 7.3 mg/kg
ED50 [8]: 45 ± 5 mg/kg
Dose of CaCl2, arrhythmogenic [3, 15]: 116.0 mg/kg
Dose of CaCl2, lethal [3, 15]: 120.0 mg/kg
Dose of CaCl2, arrhythmogenic [3, 16]: 127.0 mg/kg
Dose of CaCl2, lethal [3, 16]: 138.0 mg/kg

C=C[C@H]1C[N@@]2CC[C@H]1C[C@@H]2[C@@H](O)c1ccnc2ccc(OC)cc12 [Quinidine, reference compound]
effect on strophanthin arrhythmia, in clinic ([9]; clinic): in some cases is ineffective
antiarrhythmic activity [9]: insufficient antiarrthythmic activity
effect on arterial pressure (side-effect) [9]: drastically reduce the arterial pressure
toxicity [9]: toxic
Acute toxicity, LD50 ([5]; white mice, confidence limit at P = 0.05): 156 mg/kg
LD50 [6]: 156 mg/kg
ED50 ([7]; iv): 2.3 ± 0.4 mg/kg
ED50 [8]: 4.3 ± 0.6 mg/kg
Dose of CaCl2, arrhythmogenic [3, 13]: 126.9 mg/kg
Dose of CaCl2, lethal [3, 13]: 136.0 mg/kg
Dose of CaCl2, arrhythmogenic [3, 15]: 120.8 mg/kg
Dose of CaCl2, lethal [3, 15]: 133.5 mg/kg
